{"source": "patent US20250057963A1", "about": "“DISCOVERY OF PIPERLONGUMINE AS A NOVEL E3 LIGASE LIGAND” (University of Florida Research Foundation, Incorporated, priority 2021, published 2025)", "key": {"purified KEAP1 protein": {"target": "T1, purified KEAP1 protein (Homo sapiens, UniProt Q14145)", "T1 construct": "made in house; host or cells: bacterial cells grown in LB and induced with IPTG", "T1 sequence (Q14145 whole entry)": "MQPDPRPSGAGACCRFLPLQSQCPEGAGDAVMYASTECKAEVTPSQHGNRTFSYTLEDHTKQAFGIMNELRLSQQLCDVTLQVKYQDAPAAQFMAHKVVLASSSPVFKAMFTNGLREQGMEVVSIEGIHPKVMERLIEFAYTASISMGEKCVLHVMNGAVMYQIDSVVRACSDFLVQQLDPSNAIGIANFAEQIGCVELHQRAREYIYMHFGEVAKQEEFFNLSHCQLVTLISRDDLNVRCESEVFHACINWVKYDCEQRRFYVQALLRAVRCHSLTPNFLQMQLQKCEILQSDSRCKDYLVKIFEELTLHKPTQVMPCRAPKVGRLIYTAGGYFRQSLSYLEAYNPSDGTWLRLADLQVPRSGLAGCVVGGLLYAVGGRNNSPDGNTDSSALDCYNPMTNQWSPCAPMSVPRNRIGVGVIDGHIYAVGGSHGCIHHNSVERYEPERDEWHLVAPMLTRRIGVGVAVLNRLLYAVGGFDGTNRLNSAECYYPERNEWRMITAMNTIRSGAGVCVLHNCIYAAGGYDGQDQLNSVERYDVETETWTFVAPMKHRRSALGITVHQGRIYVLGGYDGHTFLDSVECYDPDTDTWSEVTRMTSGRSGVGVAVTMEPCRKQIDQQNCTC", "assay": "Gel-based competitive ABPP assay with IA-alkyne", "format": "binding", "conditions": "purified His-KEAP1, serially diluted 955", "protocol": "The plasmid pet28a-His6-Keap1 for expressing His-KEAP1 was purchased from Addgene (a gift from Yimon Aye, plasmid #62454). To purify His-KEAP1, the plasmid transformed cells were grown in LB broth at 37° C. with shaking until the optical density at 600 nm reached 0.6-0.7. Isopropyl-β-D-thiogalactopyranoside (1 mM) was added to induce protein expression overnight at 16° C. Cell pellet was resuspended in lysis buffer [50 mM Tris-Hcl (pH 7.5), 150 mM NaCl, 1 mM EDTA, 0.05% NP-40, […], lx protease inhibitor, and 1 mM DTT] and lysed using sonication. The lysate was cleared by centrifugation at 20,000×g for 30 min at 4° C. and purified by using GE Healthcare His GraviTrap™ Kit (Cat. No. 45-002-016, Fisher Scientific). After elution, the proteins were concentrated by using Pierce Protein Concentrators PES, 30K MWCO (Cat. No. 88502, ThermoFisher) and then dialyzed into the buffer containing 50 mM HEPES, 150 mM NaCl, and 0.1 mM EDTA (pH 7.5).\nA gel-based ABPP assay was performed as previously described with some modifications (Ward et al., 2019). Briefly, Purified His-KEAP1 ([…]) was diluted into 50 μL of PBS and 0.5 μL of either DMSO (vehicle) or indicated compound was added to incubate at 25° C. for 1 h, then the samples were treated with 20 µM IA-Alkyne (Cat. No. 7015, Tocris, prepared in DMSO) at 25° C. for 1 h. […]"}, "[1]": {"target": "T2, E3 ligases interacting with V5-TurboID-CDK9 (Homo sapiens, UniProt Q14145)", "T2 construct": "The biotinylated proteins identified by MS in 293T cells; expressed in transfected cells; host or cells: 293T", "T2 sequence (Q14145 whole entry)": "as above", "T2 sequence (P50750 whole entry partner)": "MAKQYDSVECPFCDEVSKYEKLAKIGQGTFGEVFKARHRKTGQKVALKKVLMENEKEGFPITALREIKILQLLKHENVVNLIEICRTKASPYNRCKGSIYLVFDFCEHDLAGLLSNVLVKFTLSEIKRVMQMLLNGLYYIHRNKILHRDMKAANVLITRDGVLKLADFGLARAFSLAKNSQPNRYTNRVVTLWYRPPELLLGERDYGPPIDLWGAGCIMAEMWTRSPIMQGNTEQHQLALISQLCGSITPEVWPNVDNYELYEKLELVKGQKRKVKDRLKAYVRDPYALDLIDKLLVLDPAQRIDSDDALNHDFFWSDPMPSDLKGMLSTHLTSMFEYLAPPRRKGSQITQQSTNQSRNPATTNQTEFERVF", "assay": "TurboID-bait assay (V5-TurboID-CDK9 in 293T cells) with LC-MS/MS or immunoblot", "format": "cell-based", "conditions": "with vs without 955, biotin present", "text": "(§1) Construction of the pcDNA3-V5-TurboID-CDK9 plasmid. To build the TurboID-bait assay, we first constructed a V5-TurboID-tagged CDK9 plasmid (pDL2518) through Gibson assembly method. The template plasmids HA-CDK9 (a gift from Andrew Rice, plasmid #28102) and V5-TurboID-NES_pCDNA3 (a gift from Alice Ting, plasmid #107169) were purchased from Addgene. The primer pair (5′-cagtctgcggtctgccgaaaagctgcag[…]-3′ and 5′-cagggtcaggcgctccaggggaggcag[…]-3′) and the template HA-CDK9 were used to clone the CDK9 fragment. The two primer pairs: pair-1 (5′-[…]ctgcctcccctggagcgcctgaccctg-3′ and 5′-[…]-3′); pair-2 (5′-[…]-3′ and 5′-[…]ctgcagcttttcggcagaccgcagactg-3′) and the template V5-TurboID-NES_pCDNA3 were used to clone the V5-TurbolD fragment. The PCR fragments were assembled using NEBuilder® HiFi DNAAssembly Master Mix (Cat. No. E2621, NEB, Ipswich, MA, USA). DNA sequences in all these plasmids were authenticated by automatic sequencing.\n(§2) TurboID-bait assay. 293T (6×10^5 for WB detection and 1.2×10^6 for MS) cells were transfected with plasmid V5-TurboID-CDK9 using Lipofectamine 2000 as previously described (Lv et al., 2021). […] Then the cells were harvested and lysed in 1×PBS buffer (Cat. #D1408, Sigma-Aldrich). After centrifugation at 20,000×g for 60 min at 4° C., the supernatant soluble fraction was used for further analysis. […]"}, "[2]": {"tested_on": "E3 ligases interacting with V5-TurboID-CDK9", "assay": "TurboID-bait assay (V5-TurboID-CDK9 in 293T cells) with LC-MS/MS or immunoblot", "format": "cell-based, Human", "conditions": "MS of biotinylated proteins with vs without 955", "text": "as §1, §2"}}, "note": "Entries after “also recorded” stand apart in the source; their conditions may differ."}
{"smiles": "COc1cc(/C=C/C(=O)N2CCC=CC2=O)cc(OC)c1OCCN1CCN(C(=O)CN2CCC(C(=O)Nc3ncc(SCc4ncc(C(C)(C)C)o4)s3)CC2)CC1", "note": "[compound 955, (E)-N-(5-(((5-(tert-butyl)oxazol-2-yl)methyl)thio)thiazol-2-yl)-1-(2-(4-(2-(2,6-dimethoxy-4-(3-oxo-3-(6-oxo-3,6-dihydropyridin-1(2H)-yl)prop-1-en-1-yl)phenoxy)ethyl)piperazin-1-yl)-2-oxoethyl)piperidine-4-carboxamide]", "values": [{"measurement": "competition with IA-alkyne for covalent binding to KEAP1", "setting": "purified KEAP1 protein", "value": "concentration-dependent manner"}, {"measurement": "KEAP1 pulled down (immunoblot validation)", "setting": "[1]", "value": "more KEAP1 could be pulled down; also recorded: significantly more KEAP1 can be pulled down"}, {"measurement": "number of E3 ligases recruited to CDK9", "setting": "[2]", "value": 6}]}
